{"source": "patent US20180106782A1", "about": "“HIGH THROUGHPUT CARDIOTOXICITY SCREENING PLATFORM” (The Board of Trustees of the Leland Stanford Junior …, priority 2016, published 2018)", "key": {"[1]": {"tested_on": "μpatterned hiPSC-CMs", "assay": "sarcomere length (sl) and sarcomere shortening (ss) from videos of labeled myofibrils", "type": "cell-based, human", "conditions": "for average values of sl (sarcomere length): single cell with labeled myofibrils (FIG. 7A, 7E)", "protocol": "We analyzed videos of beating patterned hiPSC-CMs with LifeAct-labeled myofibrils (Ribeiro 2015a) to quantify the organization and dynamics of sarcomeres along myofibrils. Sarcomere shortening and movement during the contractile cycle was determined from analyzing how the size of all labeled sarcomeres in a single hiPSC-CM varies during each of its contractile cycles. The minimal length that separates two proximal Z-lines defines sarcomere size. LifeAct labels actin between Z-lines, which correspond to dark lines in LifeAct-labeled myofibrils. (Ribeiro 2015a) Therefore, the minimal distance between adjacent dark lines in LifeAct-labeled myofibrils defines sarcomere size. We used four different approaches to quantify sarcomere size along LifeAct-labeled myofibrils from frames of single beating hiPSC-CMs (FIG. 12) and used the second approach for performing better when analyzing videos with minimal user intervention.\nThe second approach (FIG. 12B) is a novel method that we developed to determine sarcomere lengths in each frame without the need of curve-fitting procedures or radial Fourier transforms. The approach consists of automatically measuring the length of the segment between adjacent Z-lines that is parallel to the direction of myofibril alignment (FIG. 15). The algorithm for this approach measured the length from Z-line i to Z-line i+1 using information on myofibril orientation in the region around Z-line i and Z-line i+1 and considering a skeleton of sarcomeres generated as previously detailed for the first approach. The algorithm developed first a map of all points that compose the sarcomere skeleton and each point was taken once as a starting location of a path along the direction of myofibril orientation that stopped when another Z-line in the skeleton was reached (FIG. 15). The length between adjacent Z-lines was therefore defined as the Euclidean distance between start and end points calculated with this method (FIG. 15). The path was calculated pixel by pixel within the skeletonized image. For each new pixel of the path, the algorithm evaluated what the other pixel of the path was based on the local orientation of the myofibril. For pixels that were starting points or pixels already in a path, the local orientation angle of myofibrils was taken as the deciding factor to determine the next path pixel. In the algorithm, we particularly defined that the y direction of the path could be chosen freely, but only pixels in the +x direction could be candidates for the next element of the path (FIG. 15). This definition derived from the fact that every point composing the skeleton was considered as a starting point and because orientations of myofibrils are in the [0,Th] range. In relation to a known point of a path, the next neighboring pixel to be included as the next element of that path could be the pixel on the right, on the top, on the bottom, on the top right or on the bottom right (FIG. 15-B). Given this condition, a 10° angle or a 0° angle of known myofibril orientation lead to the same decision for the next pixel to include in the path: the pixel on the right. We estimated the local orientation of myofibrils through the MATLAB-written code RIDGEORIENT. (Kovesi 2000) This tool indicates the principle ridge direction through local gradient variations. By definition, the gradient is […] to the main orientation. (Krause 2009)\nThe global orientation of a myofibril between Z-lines was also taken in consideration for deciding the next pixel in the path between Z-lines (FIG. 15) because small angles can add up during the extending of the line defined by the path and better reveal the real myofibril orientation. For example, starting at a pixel on a Z-line (x1, y1) with a local orientation angle θ1=10°, the next pixel would have to be (x1+1, y1). If θ2=10°, the next pixel would again be to the right, adding (x1+2, y1) to the path. […]"}, "[2]": {"tested_on": "μpatterned hiPSC-CMs", "assay": "cell movement from brightfield videos of beating μpatterned hiPSC-CMs (cross-correlation within ROI)", "type": "cell-based, human", "conditions": "for aδ (temporal asynchronicity) / d (displacement) / VR (peak velocity of relaxation) / VC (peak velocity of contraction) / aθ (spatial asynchronicity): brightfield, single cell", "protocol": "We imaged the movement of beating hiPSC-CMs and the displacement of fluorescent microbeads embedded in polyacrylamide substrates with a Zeiss Axiovert 200M inverted microscope equipped with a Zeiss Axiocam MRm CCD camera. This microscope also contained an environmental chamber (PeCon) to set temperature at 37° C. Unless otherwise noted, we acquired microscopy videos while electrically pacing hiPSC-CMs with 10 ms-wide bipolar pulses of electric-field stimulation at 10-15 V with a frequency of 1 Hz (Myopacer, lonOptix). To induce contractile changes in hiPSC-CMs, we added drugs known to affect CM contractile machinery to the culture medium. We analyzed the mechanical output of cells after adding drugs. […] We exposed single cells to concentrations of 0.1 μM and then 1 μM of isoproterenol (Sigma, Saint Louis, Mo.) to test how the contractile activity of each cell varied after adding different amounts of isoproterenol to the medium. Omecamtiv mecarbil (Adooq Bioscience, Irvine, Calif.) was also added to the cell culture medium at 10 nM or 0.1 μM to detect different variations in the contractile response of hiPSC-CMs after adding one of these concentrations. We acquired videos of single beating hiPSC-CMs imaged with differential interference contrast microscopy at frame rates higher than 30 fps for a time between 4 and 10 s. We used MATLAB (R2014b version, Mathworks) to convert pixels of each frame to microns. Zeiss files (.czi) contained information on the pixel dimensions and were imported into MATLAB using the Bioformats package. ([…] 2010) We also confirmed the software calibration with calibration slides (Electron Microscopy Sciences). For each video of a beating single cell, we selected a region of interest (ROI) around the borders of the cell and analyzed average displacements within this ROI (FIG. 1B). For this purpose, we selected a baseline frame, within all the frames of the video, which represented the relaxed state of the cell and calculated average displacement within the ROI for the remaining frames relative to the baseline frame. As noted bellow, this procedure was automated. We then calculated displacements from microscopy videos with cross-correlation approaches: digital image correlation (DIC) and particle image velocimetry (PIV) approaches. […] Cross-correlation is done between sub-blocks of the image and the highest correlation indicates the maximum likelihood that blocks match. We tested the following cross-correlation algorithms: PIVIab, ImageJ PIV (Tseng 2012) and Ncorr. PIVIab and Ncorr were written in MATLAB, while ImageJ PIV is a plugin for ImageJ (NIH). Ncorr generally performs better, but uses more computational time. (Blaber 2015) We measured two parameters of asynchronicity of contractile movement within the ROI: spatial asynchronicity (aθ) of contractile movement and temporal asynchronicity (aδ) of contractile movement. Spatial synchronicity occurs when the different regions of the cell move along the same directions and temporal synchronicity occurs when all the regions of the cell move at the same time. To calculate aθ, we first computed the direction of movement (θ) for every movement vector of different regions i inside the ROI (FIG. 1B) at each frame as defined by For the calculation of aδ, we first determined the mean offset time b between the peaks of the displacement curves of different regions i (dcurrent) in the ROI and the peaks of the mean displacement ([…] occurs within the same ROI by mean, cross-correlation between the two curves, then refined this offset result using main peaks only (FIG. 8A): […]"}}, "data": [{"compound": "CC(C)NCC(O)c1ccc(O)c(O)c1", "note": "(stereo not drawn) [isoproterenol]", "values": [{"measurement": "minimal average sl", "setting": "[1]; 0.1 μM isoproterenol", "result": "decreased"}, {"measurement": "ss (sarcomere shortening)", "setting": "[1]; 0.1 μM isoproterenol (FIG. 7D)", "result": "considerably increased"}, {"measurement": "minimal average sl", "setting": "[1]; 1 μM isoproterenol", "result": "decrease even more"}, {"measurement": "increase of ss (sarcomere shortening)", "setting": "[1]; 1 μM isoproterenol (FIG. 7D)", "result": "not with 1 μM"}, {"measurement": "maximal mean values of sl", "setting": "[1]; 1 μM isoproterenol, relative to before adding (FIG. 7B)", "result": "decreased"}, {"measurement": "average values of sl (sarcomere length)", "setting": "[1]", "result": "decreased"}, {"measurement": "aδ (temporal asynchronicity)", "setting": "[2]; ISO 0.1 (μM per FIG. 4), no ISO: 0.01", "result": 0.02, "unit": "s"}, {"measurement": "d (displacement)", "setting": "[2]; ISO 0.1 (μM per FIG. 4), no ISO: 1.09", "result": 1.3, "unit": "μm"}, {"measurement": "VR (peak velocity of relaxation)", "setting": "[2]; ISO 0.1 (μM per FIG. 4), no ISO: 3.78", "result": 5.37, "unit": "μm/s"}, {"measurement": "VC (peak velocity of contraction)", "setting": "[2]; ISO 0.1 (μM per FIG. 4), no ISO: 6.85", "result": 9.3, "unit": "μm/s"}, {"measurement": "aθ (spatial asynchronicity)", "setting": "[2]; ISO 0.1 (μM per FIG. 4), no ISO: 31.4", "result": 75.5, "unit": "°"}, {"measurement": "aδ (temporal asynchronicity)", "setting": "[2]; ISO 1 (μM per FIG. 4), no ISO: 0.01", "result": 0.02, "unit": "s"}, {"measurement": "d (displacement)", "setting": "[2]; ISO 1 (μM per FIG. 4), no ISO: 1.09", "result": 0.68, "unit": "μm"}, {"measurement": "VR (peak velocity of relaxation)", "setting": "[2]; ISO 1 (μM per FIG. 4), no ISO: 3.78", "result": 3.65, "unit": "μm/s"}, {"measurement": "VC (peak velocity of contraction)", "setting": "[2]; ISO 1 (μM per FIG. 4), no ISO: 6.85", "result": 5.34, "unit": "μm/s"}, {"measurement": "aθ (spatial asynchronicity)", "setting": "[2]; ISO 1 (μM per FIG. 4), no ISO: 31.4", "result": 25.3, "unit": "°"}, {"measurement": "variations of d, VC, VR, t̂ from brightfield videos between isoproterenol concentrations", "setting": "[2]; six cells, 0.1 and 1 μM isoproterenol (FIG. 9)", "result": "did not yield differences in variations of parameters with statistical significance"}]}, {"compound": "COC(=O)N1CCN(Cc2cccc(NC(=O)Nc3ccc(C)nc3)c2F)CC1", "note": "[omecamtiv mecarbil]", "values": [{"measurement": "maximal average sl", "setting": "[1]; chronic and acute effects of omecamtiv mecarbil (FIG. 7F)", "result": "decrease"}, {"measurement": "minimum average sl", "setting": "[1]; chronic and acute effects of omecamtiv mecarbil (FIG. 7G)", "result": "decrease"}, {"measurement": "average ss", "setting": "[1]; chronic and acute effects of omecamtiv mecarbil (FIG. 7H)", "result": "decrease"}, {"measurement": "average values of sl (sarcomere length)", "setting": "[1]", "result": "decreased"}, {"measurement": "acute dmax from brightfield videos", "setting": "[2]; 0.1 μM omecamtiv mecarbil, single cell (FIG. 6H)", "result": "considerable acute increase"}, {"measurement": "absolute values of VC and VR from brightfield videos, acute", "setting": "[2]; 0.1 μM omecamtiv mecarbil, single cell (FIG. 6I)", "result": "increase"}, {"measurement": "aδ (temporal asynchronicity)", "setting": "[2]; OM 0.1 μM (FIG. 6), row 'acute', no OM: 0.03", "result": 0.21, "unit": "s"}, {"measurement": "d (displacement)", "setting": "[2]; OM 0.1 μM (FIG. 6), row 'acute', no OM: 0.79", "result": 0.18, "unit": "μm"}, {"measurement": "VR (peak velocity of relaxation)", "setting": "[2]; OM 0.1 μM (FIG. 6), row 'acute', no OM: 2.87", "result": 0.54, "unit": "μm/s"}, {"measurement": "VC (peak velocity of contraction)", "setting": "[2]; OM 0.1 μM (FIG. 6), row 'acute', no OM: 3.53", "result": 0.71, "unit": "μm/s"}, {"measurement": "aθ (spatial asynchronicity)", "setting": "[2]; OM 0.1 μM (FIG. 6), row 'acute', no OM: 44.5", "result": 70.1, "unit": "°"}, {"measurement": "aδ (temporal asynchronicity)", "setting": "[2]; OM 0.1 μM (FIG. 6), row 'chronic', no OM: 0.03", "result": 0.04, "unit": "s"}, {"measurement": "d (displacement)", "setting": "[2]; OM 0.1 μM (FIG. 6), row 'chronic', no OM: 0.79", "result": 1.05, "unit": "μm"}, {"measurement": "VR (peak velocity of relaxation)", "setting": "[2]; OM 0.1 μM (FIG. 6), row 'chronic', no OM: 2.87", "result": 3.42, "unit": "μm/s"}, {"measurement": "VC (peak velocity of contraction)", "setting": "[2]; OM 0.1 μM (FIG. 6), row 'chronic', no OM: 3.53", "result": 4.35, "unit": "μm/s"}, {"measurement": "aθ (spatial asynchronicity)", "setting": "[2]; OM 0.1 μM (FIG. 6), row 'chronic', no OM: 44.5", "result": 68.8, "unit": "°"}]}]}
